# Data: patent US20250051762A1, “PLATFORM USING DNA-ENCODED SMALL MOLECULE LIBRARIES AND RNA SELECTION TO DESIGN SMALL MOLECULES THAT TARGET RNA” (University of Florida Research Foundation, Incorporated, priority 2021, published 2025)
# Tests used:
# [1] = system: MCF-10a cells that express WT pri-miR-27a; experiment: Migration of MCF-10a cells expressing WT pri-miR-27a; assay type: cell-based, human
# Description: MCF-10a cells were transfected with plasmids to express pri-miR-27a and mutant pri-miR-27a in 12- or 24-well plates with Lipofectamine 2000 per the manufacturer's protocol. For treatment of compounds, stocks were diluted in growth medium and added to cells for 48 h. The miRCURY miR-27a LNA inhibitor (QIAGEN, Cat #339121) was used as a positive control by diluting in growth medium to a final concentration of 1 nM. The miRCURY LNA Negative Control (QIAGEN, Cat #YI00199007-DDA) was used as a negative control, which has also diluted in growth medium to a final concentration of 1 nM.
# Migration assay: MDA-MB-231 cells were grown in 60 mm diameter dishes and treated as described in “Cell culture and compound treatment” for 12 h. The medium was then removed and replaced with growth medium lacking FBS but with the same concentration of compound. After 12 h of serum starvation, the cells were detached and seeded to ThinCert™ (GBO) 24-well hanging inserts with 8 μm pores (˜5×10^4 cells per insert). Fresh growth medium with FBS was dispended in a 24-well plate (600 μL each well), and the ThinCert™ hanging inserts containing cells were then placed into the wells. After incubating for 24 h, the growth medium in the inserts was removed, and the remaining cells were washed twice with 1×DPBS. […] The remaining cells were then imaged by microscopy and counted for quantification (3 fields of view per sample).
# [2] = molecular target: pri-miR-27a; experiment: Competitive MST binding assay with unlabeled miR-27a precursor; set-up: species or system human; conditions: 100 nM compound, Cy5-labeled Drosha site model
# Description: To measure the affinity of 9 for the 5′GAG/3′CCC loop in the context of pri-miR-27a, a competitive binding assay was used with a constant concentration of compound (100 nM) and the Cy5-labeled model of pri-miR-27a's Drosha site, and varying concentrations of unlabeled miR-27a precursor as reported by miRBase. (35) That is, the miR-27a precursor competes with the Cy5-labeled model of pri-miR-27a's Drosha site for binding 9. […] Thus, the compounds identified by using DEL-2DCS can bind avidly to biologically relevant RNA targets identified by Inforna.
# For competitive binding assays, both WT and mutant pri-miR-27a RNAs were transcribed as previously described (see Table S6 for sequences). (11) The RNA was purified by gel electrophoresis and folded in 1× Binding Buffer at final concentration of 750 nM by heating at 60° C. for 5 min and then slowly cooling to room temperature. […] The resulting data were analyzed by SigmaPlot and fitted by Equation 2 to yield the competitive dissociation constant (Kd competitive).
# where F is the concentration of fluorescence-labeled RNA; unbound and bound refers to the thermophoresis signal at completely unbound and bound state of RNA, respectively; c is the concentration of the compound; f (c) is the thermophoresis signal at compound concentration of c; Kd is the dissociation constant. […]
# [3] = system: PDCD4; experiment: Western blot of PDCD4 in MDA-MB-231 cells; assay type: cell-based, human; conditions: relative to β-actin, 48 h
# Description: Western Blotting: MDA-MB-231 cells were grown in 6-well plates to ˜80% confluency in complete growth medium and then incubated with 9 at the indicated concentrations for 48 h. Total protein was extracted using M-PER Mammalian Protein Extraction Reagent (Pierce Biotechnology) using the manufacturer's protocol and quantified using a Micro BCA Protein Assay Kit (Pierce Biotechnology). Approximately 50 μg of total protein was separated on a 10% SDS-polyacrylamide gel, and then transferred to a PVDF membrane. The membrane was washed with 1× Tris-buffered saline (TBS) and then blocked in 1×TBST (1×TBS containing 0.1% (v/v) Tween-20) containing 5% (w/v) milk for 1 h at room temperature. […] The membrane was again washed with 1×TBST, and protein expression was quantified using SuperSignal West Pico Chemiluminescent Substrate (Pierce Biotechnology) per the manufacturer's protocol.
# To quantify b-actin expression, used for normalization, the membrane was stripped using 1× Stripping Buffer (200 mM glycine, pH 2.2 and 0.1% SDS) followed by washing in 1×TBST. […] The fold change of the target protein expression (PP4C or PDCD4) was calculated by normalizing its band intensity to b-actin band intensity using ImageJ.
smiles,measurement,setting,value
C#CCN(CC(N)=O)C(=O)C[C@H](Cc1c[nH]c2ccccc12)NC(=O)[C@@H]1C[C@H](NC(=O)Cn2c(=O)[nH]c3ccccc3c2=O)CN1 [Compound 9],migration,[1],reduced migration
same,Kd,[2],40 ± 30 nM
same,PDCD4 expression,[3],upregulation
